# According to ChEMBL document CHEMBL1141167, “Antitumor activity of new substituted 3-(5-imidazo[2,1-b]thiazolylmethylene)-2-indolinones and study of their effect on the cell cycle” (2005):
# Several values for one entry are separate records, joined by “and”; a condition that tells them apart may be missing. Identical values can stand only once.
# Legend:
# CNS cell = assay: Growth inhibitory concentration dissolved in DMSO against human CNS cell line at 10E-4 M concentration; type: functional
# Colon cell [1] = assay: Total growth inhibition of human Colon cell line at 10E-4 M concentration; type: functional; parameters: unit not given here
# NSCLC [2] = assay: Total growth inhibition of human NSCLC cell line at 10E-4 M concentration; type: functional
# Breast carcinoma cell [3] = assay: Total growth inhibition of human Breast cell line at 10E-4 M concentration; type: functional
# [4] = test system: Panel NCI-60 (60 carcinoma cell lines); assay: Total growth inhibition of human MG-MID cell line at 10E-4 M concentration; type: functional
# Ovarian carcinoma cell [5] = assay: Total growth inhibition of human Ovarian cell line at 10E-4 M concentration; type: functional
# Melanoma cell [6] = assay: Total growth inhibition of human Melanoma cell line at 10E-4 M concentration; type: functional
# Prostate cell [7] = assay: Total growth inhibition of human Prostate cell line at 10E-4 M concentration; type: functional
# Prostate cell [8] = assay: Growth inhibitory concentration dissolved in DMSO against human Prostate cell line at 10E-4 M concentration; type: functional
# Ovarian carcinoma cell [9] = assay: Growth inhibitory concentration dissolved in DMSO against human Ovarian cell line at 10E-4 M concentration; type: functional
# Melanoma cell [10] = assay: Growth inhibitory concentration dissolved in DMSO against human Melanoma cell line at 10E-4 M concentration; type: functional
# Colon cell [11] = assay: Growth inhibitory concentration dissolved in DMSO against human Colon cell line at 10E-4 M concentration; type: functional
# NSCLC [12] = assay: Growth inhibitory concentration dissolved in DMSO against human NSCLC cell line at 10E-4 M concentration; type: functional; parameters: unit not given here
# Renal cell = assay: Growth inhibitory concentration dissolved in DMSO against human Renal cell line at 10E-4 M concentration; type: functional; parameters: unit not given here
# Breast carcinoma cell [13] = assay: Growth inhibitory concentration dissolved in DMSO against human Breast cell line at 10E-4 M concentration; type: functional
# [14] = test system: Panel NCI-60 (60 carcinoma cell lines); assay: Growth inhibitory concentration dissolved in DMSO against human MG-MID cell line at 10E-4 M concentration; type: functional
# Colon cell [15] = assay: Cytotoxic effect dissolved in DMSO against Colon cell line at 10E-4 M concentration; type: functional, Homo sapiens
# Breast carcinoma cell [16] = assay: Cytotoxic effect dissolved in DMSO against Breast cell line at 10E-4 M concentration; type: functional, Homo sapiens
# [17] = test system: Panel NCI-60 (60 carcinoma cell lines); assay: Cytotoxic effect dissolved in DMSO against MG-MID cell line at 10E-4 M concentration; type: functional, Homo sapiens
# Ovarian carcinoma cell [18] = assay: Cytotoxic effect dissolved in DMSO against Ovarian cell line at 10E-4 M concentration; type: functional, Homo sapiens
# Melanoma cell [19] = assay: Cytotoxic effect dissolved in DMSO against Melanoma cell line at 10E-4 M concentration; type: functional, Homo sapiens
smiles,measurement,setting,value
COc1ccc2c(c1)/C(=C\c1c(C)nc3sc(C)cn13)C(=O)N2C,"pGI50 (-log GI50, M)",CNS cell,5.46
same,TGI,Colon cell [1],4.55 and 4.59
same,TGI,NSCLC [2],4.4
same,TGI,Breast carcinoma cell [3],4.87
same,TGI,[4],4.46
same,TGI,Ovarian carcinoma cell [5],4.42
same,TGI,Melanoma cell [6],4.45
same,TGI,Prostate cell [7],4.1
same,pGI50 (negative log molar GI50),Prostate cell [8],5.06
same,pGI50 (negative log of GI50 in M),Ovarian carcinoma cell [9],5.16
same,pGI50 (-log molar GI50),Melanoma cell [10],5.26
same,pGI50 (negative log of molar GI50),Colon cell [11],5.49
same,GI50,NSCLC [12],5.11
same,GI50,Renal cell,5.32
same,"pGI50 (-log GI50, M)",Breast carcinoma cell [13],5.6
same,GI50,[14],5.35
same,LC50,Colon cell [15],4.09
same,LC50,Breast carcinoma cell [16],4.03
same,LC50,[17],4.03
same,LC50,Ovarian carcinoma cell [18],4.02
same,LC50,Melanoma cell [19],4.13
COc1cc2c(cc1C)NC(=O)/C2=C/c1c(C)nc2sc(C)cn12,"pGI50 (-log GI50, M)",CNS cell,4.08
same,pGI50 (negative log molar GI50),Prostate cell [8],4.23
same,pGI50 (negative log of GI50 in M),Ovarian carcinoma cell [9],4.12
same,pGI50 (-log molar GI50),Melanoma cell [10],4.22
same,pGI50 (negative log of molar GI50),Colon cell [11],4.21
same,GI50,NSCLC [12],4.24
same,GI50,Renal cell,4.09
same,"pGI50 (-log GI50, M)",Breast carcinoma cell [13],4.33
same,GI50,[14],4.22
